Nine compounds from patent US8273769B2, “Phenoxy acetic acid derivatives” (Merck Serono SA, priority 2009, dated 2012) can be followed below.

Each structure is given as a SMILES string.

The target of data set [1] is T1, CRTH2 (Homo sapiens, UniProt Q9Y5Y4).
T1 sequence (Q9Y5Y4 1-395): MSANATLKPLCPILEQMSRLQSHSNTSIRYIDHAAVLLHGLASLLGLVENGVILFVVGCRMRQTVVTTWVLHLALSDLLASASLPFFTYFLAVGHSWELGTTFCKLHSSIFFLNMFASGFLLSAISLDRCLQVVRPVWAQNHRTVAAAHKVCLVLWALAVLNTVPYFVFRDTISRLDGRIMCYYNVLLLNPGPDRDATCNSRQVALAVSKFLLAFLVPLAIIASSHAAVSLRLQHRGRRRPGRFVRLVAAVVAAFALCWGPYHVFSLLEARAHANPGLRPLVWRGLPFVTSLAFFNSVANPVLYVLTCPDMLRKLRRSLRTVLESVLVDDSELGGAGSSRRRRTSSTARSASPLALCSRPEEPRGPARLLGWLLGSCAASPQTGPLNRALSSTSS
The data set can be described thus: Radioligand binding Scintillation Proximity Assay ([3H]PGD2, hCRTH2-CHO cell membranes). The arrangement: host or cells: CHO cells. The following applies: 1.5 nM [3H]PGD2, hCRTH2-CHO cell membranes, SPA. An outline of the steps:
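SPA competition binding at room temperature, 90 min with agitation: 1.5 nM [3H]PGD2, 10-50 μg/ml hCRTH2-CHO membrane protein, WGA SPA beads, HEPES pH 7.4 with 10 mM MnCl2, 1% DMSO. Non-specific binding defined with 10 μM PGD2; scintillation counting.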
A general note: Scintillation proximity formats need no separation of bound from free tracer.

The test system of data set [2] is eosinophils in human whole blood. Nature of the data set: PGD2-induced eosinophil cell shape assay in human whole blood. In kind it is cell-based. The following applies: 10 nM PGD2 final, flow cytometry. The protocol:
The Compounds of Formula (I) were diluted in dimethylsulphoxide so that the total volume of dimethylsulfoxide was kept constant at 2% dimethylsulphoxide (Me2SO). Serial dilutions of 200 μM to 0.09 μM were prepared. Samples of 90 μl of human blood from healthy volunteers (Centre de Transfusion Sanguine de Genève) were pre-incubated in polypropylene Falcon tubes (BD 352063) for 20 minutes in a water bath at 37° C. with 10 μl of diluted compounds. For CRTH2 activation, 100 μl PGD2 (Cayman 12010) at 20 nM was added (10 nM final) to each tube and cells were maintained at 37° C. For negative control cells were treated with PBS. After 10 minutes, cell activation was stopped with 120 μl Formaldehyde 10% (4% final, Fluka 41650) and cells were rested for 10 minutes at room temperature. Fixed cells were transferred into polypropylene tubes and then treated for 1 hour in a water bath at 37° C. with 2 ml of Triton-Surfact-Amps X-100 (Pierce 28314) at 0.166% (0.13% Triton final). After several washes with PBS (red cells lysed progressively during washes, two washes are necessary), cells were analyzed by flow cytometry on a FACSCalibur. In one embodiment, the compounds of Formula (I) of the present invention are capable of blocking the cell shape change of eosinophils induced by PGD2 in Whole Blood.
(In flow cytometry, cells or beads pass a laser one at a time.)

Data set [3] is described as follows: In vivo pharmacokinetic evaluation in mouse. As to conditions: mice; for clearance / AUC / bioavailability: female, C57BL/6, mouse, plasma; for clearance: iv, i.v. 1 mg/Kg; for AUC po (5 mg/Kg) / AUC: oral gavage 5 mg/Kg; for bioavailability: po, 5 mg/kg. Also on record: species or system C57BL/6 female mice. On the procedure: In order to study the pharmacokinetic (PK) profile of test compounds in vivo, Sprague Dawley male rats or C57BL/6 female mice were dosed intravenously or after oral gavage. For both species, test compounds were dosed in solution at 1 mg/kg for i.v. route (10% ethanol, 10% N,N-dimethylacetamide, 30% propylene glycol, 50% water, v/v) and in suspension at 5 mg/kg (0.5% carboxymethylcellulose suspension, containing 0.25% Tween 20 in water) for oral gavage. PK profile in rat was obtained from 3 animals per dosing route and mouse PK profile was determined from 3 animals for each time points. The volume of administration was 2 mL/kg for i.v. dosing in both species and either 5 mL/kg (rat) or 10 mL/kg (mouse) for oral gavage. Blood samples (100 μL/time point) were collected at 0.083 (5 min), 0.25, 0.5, 1, 4, 7 and 24 hours post-dose for i.v. dosing, and at 0.5, 1, 4, 7 and 24 h for oral dosing, into heparin-Li+ containing tubes. For rats, all blood samples were collected trough a catheter in the carotid artery (placed in the artery the day before the experiment), under light isoflurane anesthesia, and stored on ice until centrifugation and plasma isolation. For mouse, blood samples were collected from intracardiac puncture at sacrifice at each time point and processed as described above for the rat. Plasma samples were stored frozen until analysis (−20° C. to −70° C.). For bioanalysis, samples were processed by protein precipitation (acetonitrile, formic acid 0.1%, addition of 3 volumes) after addition of one internal standard and analysed using a sensitive and selective LC/MS/MS method. An aliquot of the resulting supernatant was subject to LC/MS/MS analysis using a reverse phase column (Waters Xterra, C8, (3.5 μm particle size, 2.1×50 mm) and a short gradient (1 min) from (Solvent A) 85% water, 15% acetonitrile and 0.1% formic acid to (Solvent B) 90% acetonitrile, 10% water and 0.1% formic acid followed by isocratic conditions of Solvent B for 3.5 min at 0.4 mL/min. Column effluent was monitored using a Sciex API 4000 triple quadrupole mass spectrometer with a Turbo V electrospray ion source. Unknown concentrations of test compounds were determined using a calibration curve ranging from 1 to 3000 ng/mL.

As for `CCCS(=O)(=O)c1cccc(C#Cc2cc(Cl)ccc2OCC(=O)O)c1` [Example 17, (4-chloro-2-{[3-(propylsulfonyl)phenyl]ethynyl}phenoxy)acetic acid], the IC50 (commonly the concentration needed to halve the response being measured) in data set [1] worked out at 10 nM. Besides, the IC50 in data set [2] was 150 nM. In data set [3], the clearance (usually the rate of elimination divided by the concentration) was 5 mL/min/kg, the Oral bioavailability was 37% and the “AUC po (5 mg/Kg)” value was 5768 ng·h/mL.

With `CN(C)S(=O)(=O)c1cncc(C#Cc2cc(Cl)ccc2OCC(=O)O)c1` [Example 35, [4-chloro-2-({5-[(dimethylamino)sulfonyl]pyridin-3-yl}ethynyl)phenoxy]acetic acid], in data set [1], the IC50 came to 55 nM. 289 nM corresponded to half-maximal inhibition in data set [2] (IC50). Also, in data set [3], the clearance was 13.3 mL/min/kg, the AUC (usually concentration integrated over time) is 6210 ng·h/mL and the Oral bioavailability was 95%.

On to `CCCS(=O)(=O)c1ccc(C)c(C#Cc2cc(Cl)ccc2OCC(=O)O)c1` [Example 38, (4-chloro-2-{[2-methyl-5-(propylsulfonyl)phenyl]ethynyl}phenoxy)acetic acid], for which the IC50 in data set [1] was 5 nM. The compound further yielded an IC50 in data set [2] of 81 nM. In data set [3], the clearance was 16.7 mL/min/kg, the bioavailability was 80% and the “AUC po (5 mg/Kg)” value was found to be 3685 ng·h/mL.

Compound `CCCS(=O)(=O)c1ccc(F)c(C#Cc2cc(Cl)ccc2OCC(=O)O)c1` [Example 89, (4-chloro-2-{[2-fluoro-5-(propylsulfonyl)phenyl]ethynyl}phenoxy)acetic acid] registered an IC50 in data set [1] of 6 nM. The compound further registered an IC50 in data set [2] of 23 nM. In data set [3], this compound had a clearance of 6.67 mL/min/kg, an AUC of 6750 ng·h/mL and an Oral bioavailability of 63%.

On to `CCCS(=O)(=O)c1ccc(Cl)c(C#Cc2cc(Cl)ccc2OCC(=O)O)c1` [Example 101, (4-chloro-2-{[2-chloro-5-(propylsulfonyl)phenyl]ethynyl}phenoxy)acetic acid], for which, in data set [1], the IC50 was determined as 3 nM. The compound also displayed an IC50 in data set [2] of 23 nM. In data set [3], the clearance is 16.7 mL/min/kg, the bioavailability came out at 110% and the “AUC po (5 mg/Kg)” value stood at 5795 ng·h/mL.

In turn, `CC(C)S(=O)(=O)c1ccc(F)c(C#Cc2cc(Cl)ccc2OCC(=O)O)c1` [Example 102, (4-chloro-2-{[2-fluoro-5-(isopropylsulfonyl)phenyl]ethynyl}phenoxy)acetic acid] had an IC50 in data set [1] of 5 nM. The compound also came in with an IC50 in data set [2] of 91 nM. For the same compound, in data set [3], the clearance was 5.83 mL/min/kg, the bioavailability amounted to 130% and the “AUC po (5 mg/Kg)” value stood at 18691 ng·h/mL.

In turn, `CC(C)S(=O)(=O)c1ccc(Cl)c(C#Cc2cc(Cl)ccc2OCC(=O)O)c1` [Example 103, (4-chloro-2-{[2-chloro-5-(isopropylsulfonyl)phenyl]ethynyl}phenoxy)acetic acid] came in with an IC50 in data set [1] of 4 nM. Besides, in data set [2], the IC50 is 67 nM. In data set [3], the clearance is 11.7 mL/min/kg, the Oral bioavailability is 64% and the “AUC po (5 mg/Kg)” value worked out at 4889 ng·h/mL.

Regarding `CN(C)S(=O)(=O)c1ccc(F)c(C#Cc2cc(Cl)ccc2OCC(=O)O)c1` [Example 107, [4-chloro-2-({5-[(dimethylamino)sulfonyl]-2-fluorophenyl}ethynyl)phenoxy]acetic acid], the IC50 in data set [1] is 4 nM. In data set [2], this compound returned an IC50 of 23 nM. In data set [3], the clearance was 10 mL/min/kg, the Oral bioavailability is given as 58% and the “AUC po (5 mg/Kg)” value is 4880 ng·h/mL.

Regarding `O=C(O)COc1ccc(Cl)cc1C#Cc1ccc2c(c1)S(=O)(=O)c1ccccc1-2` [Example 154, {4-chloro-2-[(5,5-dioxidodibenzo[b,d]thien-3-yl)ethynyl]phenoxy}acetic acid], the IC50 in data set [1] was determined as 14 nM. Also, in data set [3], the clearance is 1.67 mL/min/kg, the Oral bioavailability came to 57% and the “AUC po (5 mg/Kg)” value stood at 30942 ng·h/mL.
